The values below come from a polymer gas permeability compilation.

`*Oc1ccc(S(=O)(=O)c2ccc(Oc3cccc4c(*)cccc34)cc2)cc1` (repeat unit) registered a CH4 permeability of 0.0364 Barrer, a CO2 permeability of 1.6 Barrer, an H2 permeability of 8.1 Barrer and an N2 permeability of 0.0568 Barrer. The compound further showed an O2 permeability of 0.42 Barrer.

Compound `*Oc1ccc(S(=O)(=O)c2ccc(Oc3ccc(C(C)(C)c4ccc(*)cc4)cc3N)cc2)cc1` (repeat unit) displayed a CH4 permeability of 0.12 Barrer, a CO2 permeability of 2.95 Barrer, an N2 permeability of 0.12 Barrer and an O2 permeability of 0.745 Barrer.

Compound `*C(F)(F)C(*)(F)F` (repeat unit) came in with a CH4 permeability of 10 Barrer, a CO2 permeability of 12.7 Barrer and an O2 permeability of 4.9 Barrer.

Compound `*C(=C(*)c1ccc(C(C)(C)C)cc1)c1ccc(O[Si](C)(C)C(C)(C)C)cc1` (repeat unit) came in with a CH4 permeability of 540 Barrer, a CO2 permeability of 2300 Barrer, an H2 permeability of 1000 Barrer and an N2 permeability of 210 Barrer. This compound also displayed an O2 permeability of 470 Barrer.

`*Oc1ccc(C(c2ccc(Oc3ccc(C(=O)c4ccc(C(C)(C)c5ccc(C(=O)c6ccc(*)cc6)cc5)cc4)cc3)cc2)(C(F)(F)F)C(F)(F)F)cc1` (repeat unit) had a CH4 permeability of 0.345 Barrer, a CO2 permeability of 8 Barrer, an H2 permeability of 22.8 Barrer and an N2 permeability of 0.44 Barrer. The compound also yielded an O2 permeability of 2.4 Barrer.

Take `*c1ccc(Cc2ccc(-n3c(=O)c4cc5c(=O)n(*)c(=O)c5cc4c3=O)cc2)cc1` (repeat unit): the CH4 permeability was found to be 0.0576 Barrer, the CO2 permeability is 2.5 Barrer, the H2 permeability is 6.61 Barrer and the N2 permeability was 0.069 Barrer. Besides, the O2 permeability was found to be 0.398 Barrer.

In the case of `*c1ccc(-c2ccc(Oc3ccc(C4(c5ccc(Oc6ccc(-c7ccc(N8C(=O)c9ccc(Oc%10ccc%11c(c%10)C(=O)N(*)C%11=O)cc9C8=O)cc7)cc6C(F)(F)F)cc5)c5ccccc5C(=O)N4c4ccccc4)cc3)c(C(F)(F)F)c2)cc1` (repeat unit), the CH4 permeability worked out at 0.84 Barrer, the CO2 permeability turned out to be 14.6 Barrer, the N2 permeability was 0.96 Barrer and the O2 permeability was found to be 4.22 Barrer.

Take `*Oc1ccc(Oc2cccc(*)c2C#N)c(-c2cccc(C)c2)c1` (repeat unit): the CH4 permeability was found to be 0.05 Barrer, the CO2 permeability is 1.9 Barrer, the H2 permeability came to 6.8 Barrer and the N2 permeability came out at 0.07 Barrer. The O2 permeability was found to be 0.45 Barrer.

Consider `*Oc1ccc(C(C)(C)c2ccc(C(C)(C)c3ccc(Oc4ccc(S(=O)(=O)c5ccc(*)cc5)cc4)cc3)cc2)cc1` (repeat unit), for which the CH4 permeability was found to be 0.34 Barrer, the CO2 permeability turned out to be 6.8 Barrer, the H2 permeability was found to be 36 Barrer and the N2 permeability was 0.321 Barrer. The O2 permeability is 1.8 Barrer.

In turn, `*c1cccc(Oc2cccc(N3C(=O)c4ccc(C(c5ccc6c(c5)C(=O)N(*)C6=O)(C(F)(F)F)C(F)(F)F)cc4C3=O)c2)c1` (repeat unit) gave a CH4 permeability of 0.032 Barrer, a CO2 permeability of 2.1 Barrer, an H2 permeability of 14 Barrer and an N2 permeability of 0.1 Barrer. This compound also gave an O2 permeability of 0.68 Barrer.

For the compound `*c1ccc(Cc2ccc(N3C(=O)c4ccc(Oc5ccc(Oc6ccc7c(c6)C(=O)N(*)C7=O)cc5)cc4C3=O)cc2)cc1` (repeat unit), the CH4 permeability was 0.0222 Barrer, the CO2 permeability was 1.22 Barrer, the H2 permeability was 5.08 Barrer and the N2 permeability amounted to 0.0357 Barrer. Besides, the O2 permeability was 0.242 Barrer.

With `*Oc1c(C)cc(*)c(C(=O)c2ccc([N+](=O)[O-])cc2)c1C` (repeat unit), the CH4 permeability came to 0.76 Barrer, the CO2 permeability turned out to be 11.4 Barrer, the N2 permeability was found to be 1.27 Barrer and the O2 permeability came to 5.04 Barrer.

Consider `*c1ccc2c3c(ccc2c1)OC1Oc2ccc4cc(N5C(=O)c6ccc(C(c7ccc8c(c7)C(=O)N(*)C8=O)(C(F)(F)F)C(F)(F)F)cc6C5=O)ccc4c2C31` (repeat unit), for which the CH4 permeability turned out to be 0.7 Barrer, the CO2 permeability came to 29.9 Barrer, the H2 permeability is 73 Barrer and the N2 permeability was 1.2 Barrer. Moreover, the O2 permeability came out at 7.2 Barrer.

`*c1cc(C(=O)OCCC(F)(F)C(F)(F)C(F)(F)C(F)(F)C(F)(F)C(F)(F)F)cc(N2C(=O)c3ccc(C(=O)c4ccc5c(c4)C(=O)N(*)C5=O)cc3C2=O)c1` (repeat unit): the CH4 permeability is 4.19 Barrer, the CO2 permeability was 75 Barrer, the N2 permeability is 4.49 Barrer and the O2 permeability worked out at 19.7 Barrer.

In the case of `*CC(*)c1ccc([Si](C)(C)C)cc1` (repeat unit), the CH4 permeability stood at 34 Barrer, the CO2 permeability turned out to be 227 Barrer, the H2 permeability turned out to be 182 Barrer and the N2 permeability was 16 Barrer. The O2 permeability came out at 56 Barrer.

In the case of `*Oc1cc(C)c(C(c2cc(C(C)C)c(Oc3ccc(S(=O)(=O)c4ccc(*)cc4)cc3)cc2C)c2ccccc2C(=O)O)cc1C(C)C` (repeat unit), the CH4 permeability amounted to 1.13 Barrer, the CO2 permeability is 25.1 Barrer, the H2 permeability was found to be 49.6 Barrer and the N2 permeability stood at 0.757 Barrer. Moreover, the O2 permeability came out at 4.53 Barrer.

`*Oc1cc2c(cc1O*)C1(CC2(C)C)CC(C)(C)c2cc3c(cc21)Oc1c(CN)c(*)c(*)c(CN)c1O3` (repeat unit) came in with a CH4 permeability of 257 Barrer, a CO2 permeability of 1590 Barrer, an H2 permeability of 2280 Barrer and an N2 permeability of 176 Barrer. For the same compound, the O2 permeability turned out to be 752 Barrer.

Regarding `*C1C(*)C2CC1C1C2C([Si](C)(C)C)C1[Si](C)(C)C` (repeat unit), the CH4 permeability was found to be 3310 Barrer, the CO2 permeability came out at 11300 Barrer, the H2 permeability came to 4090 Barrer and the N2 permeability came out at 1240 Barrer. Further, the O2 permeability was 2380 Barrer.

For the compound `*Oc1ccc(C(=O)c2ccc(-c3ccc(C(=O)c4ccc(Oc5ccc(C(C)(C)c6ccc(*)cc6)cc5)cc4)cc3)cc2)cc1` (repeat unit), the CH4 permeability was determined as 0.14 Barrer, the CO2 permeability came out at 3.3 Barrer, the H2 permeability amounted to 8.9 Barrer and the N2 permeability is 0.13 Barrer. This compound had an O2 permeability of 0.75 Barrer.

`*c1ccc2c(c1)Cc1cc(N3C(=O)c4ccc(C(c5ccc6c(c5)C(=O)N(*)C6=O)(C(F)(F)F)C(F)(F)F)cc4C3=O)ccc1-2` (repeat unit) yielded a CH4 permeability of 0.63 Barrer, a CO2 permeability of 32.2 Barrer, an N2 permeability of 1.27 Barrer and an O2 permeability of 7.85 Barrer.

Take `*C(=C(*)c1ccc2c(c1)Cc1ccccc1-2)c1ccccc1` (repeat unit): the CH4 permeability was 2400 Barrer, the CO2 permeability was 8500 Barrer, the H2 permeability was 3650 Barrer and the N2 permeability was determined as 1300 Barrer. This compound showed an O2 permeability of 2150 Barrer.

In turn, `*c1ccc(-c2ccc(Oc3ccc(C4(c5ccc(Oc6ccc(-c7ccc(-n8c(=O)c9cc%10c(=O)n(*)c(=O)c%10cc9c8=O)cc7)cc6C(F)(F)F)cc5)c5ccccc5C(=O)N4c4ccccc4)cc3)c(C(F)(F)F)c2)cc1` (repeat unit) yielded a CH4 permeability of 0.79 Barrer, a CO2 permeability of 39.6 Barrer, an N2 permeability of 1.2 Barrer and an O2 permeability of 7.62 Barrer.

As to `*c1ccc(-c2nnc(-c3cccc(-c4nnc(*)n4-c4ccccc4)c3)n2-c2ccccc2)cc1` (repeat unit), the CH4 permeability was determined as 0.09 Barrer, the CO2 permeability was determined as 5.2 Barrer, the N2 permeability turned out to be 0.14 Barrer and the O2 permeability is 1.16 Barrer.

`*Oc1ccc(C(C)(C)c2ccc(Oc3ccc4c(c3)C(=O)N(c3cccc(N5C(=O)c6ccc(*)cc6C5=O)c3)C4=O)cc2)cc1` (repeat unit) had a CH4 permeability of 0.0356 Barrer, a CO2 permeability of 1.3 Barrer, an N2 permeability of 0.0526 Barrer and an O2 permeability of 0.4 Barrer.

`*c1ccc2c(c1)-c1nc3ccc(-c4ccc5c(c4)nc4n5C(=O)c5cc(C(c6ccc7c(c6)C(=O)N(*)C7=O)(C(F)(F)F)C(F)(F)F)ccc5-4)cc3n1C2=O` (repeat unit) yielded a CH4 permeability of 8.1 Barrer, a CO2 permeability of 294 Barrer, an H2 permeability of 376 Barrer and an N2 permeability of 13 Barrer. The compound further came in with an O2 permeability of 65 Barrer.

For the compound `*C1C2CC(C1*)C([Si](C)(C)C)C2` (repeat unit), the CH4 permeability was 1090 Barrer, the H2 permeability came out at 6700 Barrer and the O2 permeability is 1700 Barrer.

On to `*c1cc2c(cc1C)-c1cc(C)c(N3C(=O)c4ccc(S(=O)(=O)c5ccc6c(c5)C(=O)N(*)C6=O)cc4C3=O)cc1S2(=O)=O` (repeat unit), for which the CH4 permeability amounted to 0.244 Barrer, the CO2 permeability was determined as 14.1 Barrer, the H2 permeability is 45.4 Barrer and the N2 permeability came to 0.37 Barrer. Further, the O2 permeability is 3.29 Barrer.

In the case of `*C(=C(*)c1ccc(S(=O)(=O)O)cc1)c1ccc(S(=O)(=O)O)cc1` (repeat unit), the CO2 permeability was determined as 21 Barrer, the N2 permeability was found to be 0.28 Barrer and the O2 permeability was 2.5 Barrer.

As for `*Oc1ccc(Oc2ccc(C(=O)c3ccc(*)cc3)cc2)c(-c2cccc(C)c2)c1` (repeat unit), the CH4 permeability was 0.024 Barrer, the CO2 permeability was found to be 1 Barrer, the H2 permeability came out at 3.8 Barrer and the N2 permeability worked out at 0.029 Barrer. The same compound registered an O2 permeability of 0.2 Barrer.

As to `*C(=C(*)c1ccc2c(c1)C(C)(C)C(C)(C)C2(C)C)c1ccccc1` (repeat unit), the CH4 permeability came out at 24700 Barrer, the CO2 permeability worked out at 35800 Barrer, the H2 permeability is 23600 Barrer and the N2 permeability came to 10200 Barrer. For the same compound, the O2 permeability came to 12700 Barrer.

Compound `*c1c(C)cc(-c2cc(C)c(N3C(=O)c4cc5c(cc4C3=O)C3(CC(C)(C)c4cc6c(cc43)C(=O)N(*)C6=O)CC5(C)C)c3ccccc23)c2ccccc12` (repeat unit) gave a CH4 permeability of 359 Barrer, a CO2 permeability of 4030 Barrer, an H2 permeability of 1620 Barrer and an N2 permeability of 212 Barrer. The O2 permeability turned out to be 640 Barrer.

As for `*c1ccc(C(c2ccc(-c3nnc(*)o3)cc2)(C(F)(F)F)C(F)(F)F)cc1` (repeat unit), the CH4 permeability is 4.55 Barrer, the CO2 permeability was found to be 123 Barrer and the N2 permeability turned out to be 6.1 Barrer.
